Data reported in patent US20230045421A1 (priority 2018, published 2023).

The molecules below were run on HBV rcDNA (assay: HepDE19 assay with bDNA quantitation of HBV rcDNA). Details: HepDE19 assay, inhibition of formation of rcDNA; read-out: DE-19bDNA EC50.
Type: cell-based, hepatitis B virus
Procedure, shortened: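 Compounds, top concentration 25 μM in 8-point duplicate series, were applied to Tet-free HepDE19 cultures for 7 days. Branched-DNA quantitation of HBV rcDNA against untreated wells gave EC50 and EC90 by 4-parameter fit. Viability (CC50) came from ATP luminescence on parallel plates incubated 4 days.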
Work on `CC(c1c[nH]c(=O)c2ccccc12)N(C[C@H](C)O)C(=O)Nc1ccc(F)c(Cl)c1` (single isomer, unassigned) [Compound 217] yielded an EC50 of 8200 nM.

Same assay, conditions: HepDE19 assay, inhibition of formation of relaxed circular DNA (rcDNA), bDNA quantitation; read-out: DE-19bDNA EC50
With `CC(c1c[nH]c(=O)c2c(F)c(F)ccc12)N(C)C(=O)Nc1cccc(F)c1F` (single isomer, unassigned) [Compound 458, 1-(1-(7,8-Difluoro-1-oxo-1,2-dihydroisoquinolin-4-yl)ethyl)-3-(2,3-difluorophenyl)-1-methylurea] the EC50 was 14000 nM. With `CC(c1c[nH]c(=O)c2c(F)cc(F)cc12)N(CCS(N)(=O)=O)C(=O)Nc1ccc(F)c(Cl)c1` (single isomer, unassigned) [Compound 389, 2-(3-(3-Chloro-4-fluorophenyl)-1-(1-(6,8-difluoro-1-oxo-1,2-dihydroisoquinolin-4-yl)ethyl)ureido) ethane-1-sulfonamide] the EC50 was 3300 nM. Work on `CC(c1c[nH]c(=O)c2c(F)c(F)ccc12)N(C)C(=O)Nc1cccc(F)c1F` (single isomer, unassigned) [Compound 459, 1-(1-(7,8-Difluoro-1-oxo-1,2-dihydroisoquinolin-4-yl)ethyl)-3-(2,3-difluorophenyl)-1-methylurea] yielded an EC50 of 200 nM. In the case of `CC(c1c[nH]c(=O)c2c(F)cc(F)cc12)N(CCCO)C(=O)Nc1ccc(F)cc1` (single isomer, unassigned) [Compound 378, 1-(1-(6,8-Difluoro-1-oxo-1,2-dihydroisoquinolin-4-yl)ethyl)-3-(4-fluorophenyl)-1-(3-hydroxypropyl) urea], the EC50 is reported as 24 nM. For `CC(c1c[nH]c(=O)c2cc(F)c(F)cc12)N(C)C(=O)Nc1ccnc(Cl)c1` (single isomer, unassigned) [Compound 419, 3-(2-Chloropyridin-4-yl)-1-(1-(6,7-difluoro-1-oxo-1,2-dihydroisoquinolin-4-yl)ethyl)-1-methylurea], the EC50 was 48 nM. Molecule `CC(c1c[nH]c(=O)c2cc(F)c(F)cc12)N(C)C(=O)Nc1cc(F)c(F)c(F)c1` (single isomer, unassigned) [Compound 415, 1-(1-(6,7-Difluoro-1-oxo-1,2-dihydroisoquinolin-4-yl)ethyl)-3-(3,4,5-trifluorophenyl)-1-methylurea] has an EC50 of 21 nM. With `CC(c1cn(C)c(=O)c2cc(F)c(F)cc12)N(CCCO)C(=O)Nc1ccc(F)c(Cl)c1` (single isomer, unassigned) [Compound 351, 3-(3-Chloro-4-fluorophenyl)-1-(1-(6,7-difluoro-2-methyl-1-oxo-1,2-dihydroisoquinolin-4-yl)ethyl)-1-(3-hydroxypropyl)urea] the EC50 was 7 nM. Work on `CC(c1c[nH]c(=O)c2ccc(F)cc12)N(CCS(N)(=O)=O)C(=O)Nc1ccc(F)c(Cl)c1` (single isomer, unassigned) [Compound 381, 2-(3-(3-Chloro-4-fluorophenyl)-1-(1-(6-fluoro-1-oxo-1,2-dihydroisoquinolin-4-yl)ethyl)ureido) ethane-1-sulfonamide] yielded an EC50 of 1400 nM.

Same assay, conditions: Hepatitis B virus, HepDE19, HepDE19 assay, inhibition of formation of rcDNA; read-out: DE-19bDNA EC50
Work on `CCCN(Cc1cnc(OC)c2ccccc12)C(=O)Nc1ccc(F)c(Cl)c1` [Compound 20, 3-(3-Chloro-4-fluorophenyl)-1-((1-methoxyisoquinolin-4-yl)methyl)-1-propylurea] yielded an EC50 of 440 nM. `CC(c1c[nH]c(=O)c2ccccc12)N(CC1CCOCC1)C(=O)Nc1ccc(F)c(Cl)c1` (racemic) [Compound 134, 3-(3-chloro-4-fluorophenyl)-1-(1-(1-oxo-1,2-dihydroisoquinolin-4-yl)ethyl)-1-((tetrahydro-2H-pyran-4-yl)methyl)urea] showed an EC50 of 70 nM. In the case of `COc1ncc(CN(C)C(=O)Nc2ccc(F)c(Cl)c2)c2ccccc12` [Compound 2, 3-(3-Chloro-4-fluorophenyl)-1-((1-methoxyisoquinolin-4-yl)methyl)-1-methylurea], the EC50 is reported as 2000 nM.

Same assay, conditions: read-out: DE-19bDNA EC50; HepDE19 assay, inhibition of formation of rcDNA
For `CCCCN(C(=O)Nc1ccc(F)c(Cl)c1)C(C)c1c[nH]c(=O)c2ccccc12` (single isomer, unassigned) [Compound 84, 1-Butyl-3-(3-chloro-4-fluorophenyl)-1-(1-(1-oxo-1,2-dihydroisoquinolin-4-yl)ethyl)urea], the EC50 was 10 nM.
